Values quoted from earlier work in US12115137B2, “Synergistic combinations of atorvastatin and cannabidiol (CBD)” (Indication BioScience LLC, priority 2016, dated 2024).

What was measured:
[1] = with potent CYP3A4 inhibitors such as itraconazole
CYP2C9 = CYP2C9 (Homo sapiens, UniProt P11712); details: Jiang at 333 and references cited
CYP2C19 = CYP2C19 (Homo sapiens, UniProt P33261); details: Jiang et al. 2013
[2] = oral, humans
CYP3A4 = CYP3A4 (Homo sapiens, UniProt P08684); details: Yamaori et al. 2011
Sequence of CYP3A4 (P08684 whole entry): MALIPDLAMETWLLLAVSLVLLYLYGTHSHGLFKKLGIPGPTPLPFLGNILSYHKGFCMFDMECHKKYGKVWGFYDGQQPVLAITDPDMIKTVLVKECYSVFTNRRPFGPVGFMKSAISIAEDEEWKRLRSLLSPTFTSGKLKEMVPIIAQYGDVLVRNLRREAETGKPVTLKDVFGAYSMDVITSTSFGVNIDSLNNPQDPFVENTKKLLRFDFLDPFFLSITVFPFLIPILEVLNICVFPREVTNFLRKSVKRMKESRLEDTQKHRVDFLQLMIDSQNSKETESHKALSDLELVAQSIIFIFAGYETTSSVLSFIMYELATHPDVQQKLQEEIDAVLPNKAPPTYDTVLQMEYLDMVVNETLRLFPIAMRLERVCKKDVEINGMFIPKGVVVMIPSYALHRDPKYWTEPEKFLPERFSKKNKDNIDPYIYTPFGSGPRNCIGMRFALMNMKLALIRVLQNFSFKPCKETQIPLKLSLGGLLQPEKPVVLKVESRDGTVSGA

[3] = not given; remark: listed apart in the source

Sequence of CYP2C9 (P11712 whole entry): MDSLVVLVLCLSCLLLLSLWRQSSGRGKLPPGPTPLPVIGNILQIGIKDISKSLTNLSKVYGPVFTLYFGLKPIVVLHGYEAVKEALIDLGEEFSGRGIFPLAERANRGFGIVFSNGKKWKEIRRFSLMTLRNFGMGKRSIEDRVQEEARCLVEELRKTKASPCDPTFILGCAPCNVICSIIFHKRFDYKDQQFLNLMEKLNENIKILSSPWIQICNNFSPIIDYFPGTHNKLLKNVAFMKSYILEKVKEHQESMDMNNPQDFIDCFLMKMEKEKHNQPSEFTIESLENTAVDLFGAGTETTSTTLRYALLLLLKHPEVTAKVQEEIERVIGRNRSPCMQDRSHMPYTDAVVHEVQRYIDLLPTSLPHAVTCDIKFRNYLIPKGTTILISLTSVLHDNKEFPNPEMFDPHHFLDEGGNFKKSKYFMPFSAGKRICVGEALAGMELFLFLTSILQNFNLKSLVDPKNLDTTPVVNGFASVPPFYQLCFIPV
Sequence of CYP2C19 (P33261 whole entry): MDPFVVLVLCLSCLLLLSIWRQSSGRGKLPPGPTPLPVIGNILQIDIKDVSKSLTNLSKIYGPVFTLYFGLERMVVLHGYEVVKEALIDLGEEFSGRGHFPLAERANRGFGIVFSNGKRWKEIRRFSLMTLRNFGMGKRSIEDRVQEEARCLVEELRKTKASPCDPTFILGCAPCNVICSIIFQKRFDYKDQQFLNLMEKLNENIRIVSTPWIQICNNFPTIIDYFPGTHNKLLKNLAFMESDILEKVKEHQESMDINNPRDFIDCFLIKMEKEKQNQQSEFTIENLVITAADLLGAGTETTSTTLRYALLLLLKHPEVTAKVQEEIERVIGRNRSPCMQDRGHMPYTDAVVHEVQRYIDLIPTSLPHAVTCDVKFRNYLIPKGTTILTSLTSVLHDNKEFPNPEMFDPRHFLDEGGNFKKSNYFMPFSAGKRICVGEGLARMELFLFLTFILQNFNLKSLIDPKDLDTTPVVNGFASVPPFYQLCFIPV

For `CC(C)c1c(C(=O)Nc2ccccc2)c(-c2ccccc2)c(-c2ccc(F)cc2)n1CC[C@@H](O)C[C@@H](O)CC(=O)O` [atorvastatin], which “increase in statin serum concentration” value [1] is on record?
The value was “two- to four-fold”.

For `C=C(C)[C@@H]1CCC(C)=C[C@H]1c1c(O)cc(CCCCC)cc1O` [CBD, 2-[(1R,6R)-6-isopropenyl-3-methylcyclohex-2-en-1-yl]-5-pentylbenzene-1,3-diol], which “inhibition of CYP2C9” value (CYP2C9) is on record?
Its value is “potent inhibitor”.

And the “inhibition of CYP2C19” value (CYP2C19)?
Its value is “potent inhibitor”.

What about the “bioavailability of CBD administered orally” value [2] of the same molecule?
Its value is “approximately 6%”.

And the “inhibition of CYP3A4” value (CYP3A4)?
The value was “potent inhibitor”.

What about the “increase in plasma concentration of CBD” value (with ketoconazole, a strong inhibitor of CYP3A4) of the same molecule?
Its value is “about two-fold”.

What about the “reduction of CBD levels” value (with rifampin, a CYP3A4 inducer) of the same molecule?
The value was 50-60%.

Which results are given for `COCc1c(C(C)C)nc(C(C)C)c(/C=C/[C@@H](O)C[C@@H](O)CC(=O)O)c1-c1ccc(F)cc1` [cerivastatin]?
deaths attributed to kidney failure from drug-related rhabdomyolysis ([3]; before market withdrawal in 2001): 52 deaths; rate of fatal rhabdomyolysis relative to other approved statins ([3]; compared with other approved statins): ten times more common
